Assays:
[1] = system: murine lymphocytes (BALB/c responders, C57/B6 stimulators); test: Murine mixed lymphocyte reaction (BALB/c vs. C57BL6); assay type: cell-based, mouse; settings: FIG. 10
Method: MLRs were performed essentially as described in Current Protocols in Immunology (1999, Section 3.12.6-3.12.7). That is, the primary spleen cells obtained from C57/B6J mice were used as stimulators. They were purified as described in Current Protocols in Immunology (1999, Section 3.1.5), and were irradiated (35 Gy) at the Hahnemann Hospital (Philadelphia, Pa.) blood bank facility. Primary spleen cells obtained from BALB/c/BYJ were depleted from the adherent cells using a nylon wool column, and were used as responders.
The various inhibitors were pre-plated onto 96 well, U-bottom plates and all experimental conditions were assayed at least in triplicate. 100,000 C57/B6 cells in RPMI medium, supplemented with 10% FBS, were plated into each well. 200,000 of BALB/c/BYJ cells were plated over the stimulator cells, to a final volume of 200 μl/well. Background controls received either no BALB/c cells, or no C57/B6 cells. One micro Ci of tritiated thymidine was added to each well after 4 days, and the plates were harvested 12 hours later.

[2] = system: ConA stimulated human lymphocytes; test: Viable cell counts (trypan blue) during ConA stimulation; assay type: cell-based; settings: 10 μg/ml ConA, manual counts over time (FIG. 11)
Method: FIG. 11 is a diagram depicting the effect of a 5HT type 1 receptor antagonist and a 5HT type 2 receptor antagonist on the cell numbers occurring during the mitogenic stimulation of human lymphocyte activation. The cells were stimulated with 10 μg/ml ConA. The cells were repurified on a Ficoll gradient prior to addition of the inhibitor. Trypan blue exclusion was used to count the viable cells.
To further assess the effects of propanolol (a general 5-HTR 1 antagonist) and risperidone (a general 5-HTR 2 antagonist) on the mitogenically stimulated lymphocyte culture, the number of viable cells were manually counted as the assay progressed. If the cells were not stimulated, there was no detectable change in the number of viable cells. When the cells were stimulated with ConA, a small lag period was observed and the beginning of the growth phase compared to the stimulation response curve observed in the absence of the inhibitor. […] Apparently, there is no decrease or increase compared with the starting cell numbers. It is unclear whether or not this is due too anergy, an inability to initiate the activation pathway, or both. […] Thus, based on the data presented here, the classes of antagonists that inhibit the type 2 serotonin receptors appear to be rate limiting for the lymphocyte activation processes.

[3] = system: allogeneic CTL response against P815 cells; test: Murine allograft model, CTL killing of P815 target cells by splenocytes; assay type: in vivo, C57BL/6J mice; settings: 5HT antagonists 200 μg/injection tail vein days 6 and 8; Cyclosporin A 100 μg ip daily from day −2; sacrifice day 14 (FIGS. 13, 14)
Method: The in vivo validation screen used was an art-recognized murine allogeneic rejection model as described in Zhan et al., 2000. For this assay, a complete MHC miss-match system was employed wherein 5×10^6 P815 cells ([H-2^d] DBA/2 mastocytoma) were injected into the peritoneal cavity of C57BL/6J (H-2^b) mice on day 0 of the experiment. These mice typically generate a strong cytotoxic T lymphocyte (CTL) reaction in response to P815 cells. Following the initial P815 cell inoculation, the mice were allowed to develop a CTL response (this usually takes about 10-14 days). […] Mice were then sacrificed on day 14 of the experiment as indicated in the figures; and the allogeneic CTL response was assayed as described previously (Tretiakova et al., 2000, Nature Biotechnology 18:984-988). The primary spleen cells from the treated and untreated animals were used in the direct CTL readout. Freshly obtained primary spleen cells were incubated with the [^3H] labeled target cells (P815 cells) at 100:1, 50:1, 25:1, and 12.5:1 ratios for 3.5 hours at 37° C. and harvested using a PHD harvester. The percentage of specific killing was determined using the formula % kill=(S−E)/S, where S is the amount of the DNA retained by the target cells in the absence of the effector cells and E is the amount of retained DNA in the presence of the effector cells (expressed in counts per minute; cpm).
This is an art-recognized model of allograft […] rejection based on that described by […]. (2000). In this model, there is a complete MHC mismatch between the P815 cells (H-2^d) and the C57BL6 mouse (H-2^b), thus ensuring an aggressive immune response. The data disclosed in FIG. 13, depicts results of experiments that included 6 treatment groups, each group consisting of three mice. Each mouse received 5×10^6 P815 cells injected into the peritoneal cavity on day 0 of the study. The first group was an untreated control group, which was used to establish the baseline response of the mice against the allogeneic stimulus. These mice, without any further treatments, were sacrificed, as were the other treatment groups, on day 14 of the study and their splenocytes assayed for target-specific killing of the P815 cells.
The average kill observed for the untreated group was about 45% at an effector to target ratio of 100:1. The second group was treated with risperidone, a 5HT-2 antagonist, administered via a tail vein bolus injection (200 μg/injection) on days 6 and 8 of the study. The timing of the drug administration was selected to ensure that the T cells were fully activated prior to the drug treatment. The third group was treated with propanolol, a 5HT-1 antagonist. All of the 5HT receptor antagonist-treated groups were treated as described for the risperidone-treated group. The fourth group was treated chronically with CyclosporinA. The Cyclosporin A was administered ip at a dosage of 100 μg/injection starting two days prior to the onset of the study, i.e., at day −2, and the injections were continued on a daily basis for the duration of the study.
Finally, studies conducted in vivo using the CD8-dependent allograft rejection model, in which P815 cells (a rapidly growing cell line taken from a mastocytoma in a DBA mouse), were expanded and used to create a robust rejection response in a C57BL6 mouse. In this study the mice received 5×10^6 P815 cells injected into their peritoneal cavity on day 0 of the study. The first group was an untreated control group (naïve animals), used to acquire the baseline response of the mice against the allogeneic stimulus. The positive controls were treated with the allogeneic cells without any further treatments. These animals were used to assess the induced allogeneic response against the P815 cells. […]

[4] = system: T cells in macrophage-conditioned media; test: Macrophage media-conditioning study, T cell proliferation in conditioned media; assay type: cell-based, mouse; settings: assay shown in FIG. 1
[5] = system: ConA stimulated human lymphocytes; test: Human mitogenic (ConA) stimulation, 3H-thymidine incorporation; assay type: cell-based; settings: for relief of phenelzine-induced inhibition / proliferative response, reagent added alone: 1 μg/ml ConA; for relief of phenelzine-induced inhibition: phenelzine-inhibited cells, reagents 100 μM (FIG. 6); for proliferative response, reagent added alone: reagent 100 μM (FIG. 6); for stimulation of ConA-activated human PBLs: reagents at 400 μM, time course (FIG. 4)
Method: Blood from healthy volunteers was drawn using venipuncture, using Vacutainer collection sets and heparinized collection vials. The blood was diluted 1:1 using HBSS to a total volume of 30 ml in 50 ml conical tubes (Fisher Scientific, Co., Pittsburgh, Pa.). […] Cells from the buffy coats were collected and the residual Histopaque was washed away using repeated centrifugations in HBSS. After washes, cells were resuspended at 5 million cells per ml in RPMI, supplemented with 2% FBS. To remove adherent cells, the suspension was plated onto a 6 well flat-bottom plate (Corning Costar), 3 ml/well, and incubated for 2 hours at 37° C., 5% CO2. Non-adherent cells were harvested after this incubation, were counted and resuspended in RPMI supplemented with 10% human serum (Sigma).
All drugs were pre-plated before the cell suspension was added onto each well of a 96-well round-bottom plate. All experimental conditions were assayed in at least triplicate. Cells suspended in RPMI supplemented with 10% human serum were plated at 100,000 cells per well to a final volume of 200 μl. […] Control samples received no ConA stimulation. The plates were incubated at 37° C. and 5% CO2.

5-methyl hydroxytryptamine
outcome of murine MLR [1]: slight enhancement

CC(C)NC[C@H](O)COc1cccc2ccccc12 (racemic) [propanolol]
number of viable cells [2]: prevents the cell from growing | allograft (CTL) response [3]: did not protect the mice from the allograft rejection response

CNc1cc(NS(=O)(=O)c2ccc(N)cc2)nc(NC)n1 [Ro 04-679]
outcome of murine MLR [1]: had no effects on the outcome of the assay

Cc1nc2n(c(=O)c1CCN1CCC(c3noc4cc(F)ccc34)CC1)CCCC2 [risperidone]
number of viable cells [2]: caused a brief cell increase, followed by the elimination of the cells in culture | allograft (CTL) response [3]: inhibited the allograft response to varying degrees

NCCc1c[nH]c2ccc(O)cc12 [serotonin, 5-hydroxytryptamine]
restoration of T cell proliferation in conditioned media [4]: only marginally restored the assay | relief of phenelzine-induced inhibition [5]: caused the assay to rebound to baseline levels | proliferative response, reagent added alone [5]: did not | proliferative response ([5]; differing ConA concentrations 0.1-10 μg/ml, harvest 72 hours (FIG. 5)): has no effect on the assay until the highest dose of ConA | stimulation of ConA-activated human PBLs [5]: enhanced the maximal stimulation of the cells

N[C@@H](Cc1c[nH]c2ccccc12)C(=O)O [tryptophan]
restoration of T cell proliferation in conditioned media [4]: had no effect | proliferative response ([5]; 0.1 μg/ml ConA, harvest 72 hours (FIG. 5A)): augments the proliferative response | relief of phenelzine-induced inhibition [5]: had very little effect | proliferative response, reagent added alone [5]: enhanced the proliferative response | proliferative response ([5]; highest ConA dose 10 μg/ml, harvest 72 hours (FIG. 5C)): no enhancement at the highest level | stimulation of ConA-activated human PBLs [5]: enhanced the maximal stimulation of the cells

From patent publication US20060135415A1, “Immunomodulation and effect on cell processes relating to serotonin family receptors and the blood-brain barrier” (priority 2002, published 2006)
